From article PMC6721824, “IGFs Potentiate TAC3-induced SLα Expression via Upregulation of TACR3 Expression in Grass Carp Pituitary Cells” (Cells, 2019)
Peptide text beside a SMILES is read from it.

Key:
grass carp TACR3 [1] = molecular target: T1, grass carp TACR3 (Ctenopharyngodon idella, UniProt A0A075BDW2); assay: Fluorescence-based receptor binding assay, displacement of FAM-NKBa tracer; design: species or system grass carp (Ctenopharyngodon idellus); conditions: HEK-293 cells with stable expression of grass carp TACR3, 30 min pretreatment with competitor (0.1–1000 nM), then FAM-NKBa (10 nM) 30 min, 37 °C, fluorescence 490/520 nm; read-out: IC50 for displacing FAM-NKBa binding
T1 sequence (A0A075BDW2 1-395): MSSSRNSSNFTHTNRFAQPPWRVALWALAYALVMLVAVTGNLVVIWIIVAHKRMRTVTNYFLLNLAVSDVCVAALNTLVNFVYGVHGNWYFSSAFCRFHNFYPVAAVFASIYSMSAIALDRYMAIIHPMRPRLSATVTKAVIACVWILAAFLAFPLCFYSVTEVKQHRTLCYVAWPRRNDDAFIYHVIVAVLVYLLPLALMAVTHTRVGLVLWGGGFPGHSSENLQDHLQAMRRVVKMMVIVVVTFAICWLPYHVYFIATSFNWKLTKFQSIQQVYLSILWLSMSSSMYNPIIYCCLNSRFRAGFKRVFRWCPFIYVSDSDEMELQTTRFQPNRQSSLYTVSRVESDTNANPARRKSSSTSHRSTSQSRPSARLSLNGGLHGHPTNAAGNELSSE
Protocol: The cells were then harvested and seeded onto 24-well plates at a density of 0.1 million/well and incubated at 37 °C under 5% CO2 for 24 h prior to the experiments. On the day of the experiments, the culture medium was aspirated and replaced with 500 μL serum-free DMEM with or without appropriated levels of unlabeled competitors. Cells were then allowed to incubate for 30 min at 37 °C under 5% CO2 and saturated humidity. FAM Carboxyfluorescein-labeled NKBa, namely FAM-NKBa, was used as a tracer for receptor binding experiments, and a 50-μL volume of FAM-NKBa (10 nM) was added into individual wells. After further incubation for 30 min at 37 °C, the cells were washed twice and with 500 μl PBS each to remove unbound ligands. […] The supernatant from individual wells was then collected in a 96-wells black view plate, and fluorescence signals indicative of FAM-NKBa binding were registered using FluoStar OPTIMA with excitation at 490 nm and emission at 520 nm.
For receptor binding assay, specific binding of FAM-NKBa was measured in terms of “Arbitrary Fluorescence Unit (AFU)”. The six replicates presented (expressed as Mean ± SEM) were pooled results from two individual experiments prior to statistical analysis; all data were tested for normality of distribution using the Shapiro–Wilk normality test. […]

MEK1/2 = assay: Western blot for signaling kinases: MEK1/2 phosphorylation; format: cell-based, grass carp (Ctenopharyngodon idellus); conditions: grass carp pituitary cells, senktide (1 µM) + IGF-I (50 nM), 15 min
Protocol: (§1) The pituitary cells derived from twenty grass carp pituitaries were seeded in 24-well culture plates at a density of 2.5 × 10^6 cells/mL/well and incubated with drug treatment for the duration as indicated in the individual experiments. […] After drug treatment, the culture medium from individual wells was removed and the remaining cells were rinsed with PBS and lysed in RIPA buffer (50 mM Tris^·HCl, 150 mM NaCl, 1 mM EDTA, 1% NP-40, and 0.25% Na deoxycholate), containing a final concentration of 1×protease/phosphatase inhibitor cocktail (Roche). The cell lysate was cleared by high-speed centrifugation at 4 °C, the clear supernatant was resolved in 10% gel by SDS-PAGE, and Western blotting was conducted according to the procedures as previously described. The antibodies that can be detected, the phosphorylated and total ERK1/2 (1:5,000), MEK1/2 (1:1,000), p38 MAPK (1:1,000), and Akt (1:1,000), were used at the dilutions recommended by the manufactures. […] Chemiluminescence signals for target immune-reactivity were detected using SuperSignal West Pico (PIERCE, Rockford, IL, USA) as the substrate and quantified using the IC440 CF Digital Science Image Station (Eastman Kodak, Rochester, NY, USA). […]

[2] = system: SLα mRNA expression in grass carp pituitary cells; assay: SLα mRNA expression (qPCR) in grass carp pituitary cells; format: cell-based, grass carp (Ctenopharyngodon idellus); conditions: senktide 1 µM, IGF-I/-II 100 nM (Figure 4E)
Protocol: Grass carp pituitary cells prepared by the trypsin/DNase digestion method were seeded in 24-well plates at ~2.5 × 10^6 cells/mL/well. On the following day, drug treatment was initiated by replacing the old medium with a testing medium with the appropriate levels of test substances, and the cells were then allowed to incubate at 28 °C for the duration as indicated. After drug treatment, total RNA was extracted from individual wells and reversely transcribed as above. The RT samples obtained were subjected to qPCR using a LightCycler SYBR Green I Kit (Roche, Stockholm, Sweden) with the primers mentioned above. In these studies, serial dilutions of plasmid DNA containing the ORF of SLα (GeneBank no.: EF372074) and TACR3 (GenBank no: JQ254913) cDNA were used as the standards for data calibration. Parallel real-time PCR measurement of β-actin was also conducted in individual experiments to serve as the internal control.
For real-time PCR of SLα and TACR3 mRNA measurement, standard curves with a dynamic range of ≥10^5 and correlation coefficient of ≥0.95 were used for data calibration with the RotorGene-Q software 1.7 (Qiagen) under unsupervised mode. SLα and TACR3 mRNA data were normalized with the β-actin transcript level and then were transformed as a percentage of the mean value in the control group without drug treatment (as “%Ctrl”). For the calcium bioluminescence signals and raw data obtained from luciferase reporter assays, the luminescence signals or luciferase activity was expressed as “relative luminescence unit (RLU)” registered by the fluorescence plate reader. For individual samples of the luciferase reporter assay, the firefly luciferase activity detected was routinely normalized against Renilla Luciferase activity expressed in the same well and expressed as the luciferase activity ration (as “Luc Ratio”). For receptor binding assay, specific binding of FAM-NKBa was measured in terms of “Arbitrary Fluorescence Unit (AFU)”. The six replicates presented (expressed as Mean ± SEM) were pooled results from two individual experiments prior to statistical analysis; all data were tested for normality of distribution using the Shapiro–Wilk normality test. Then, one-way ANOVA and two-way ANOVA were used to test the significant difference according to different experiment groups. The differences between groups were considered as significant at P < 0.05 (“*”) or highly significant at P < 0.01 (“**”).

p38MAPK = assay: Western blot for signaling kinases: p38MAPK phosphorylation; format: cell-based, grass carp (Ctenopharyngodon idellus); conditions: grass carp pituitary cells, senktide (1 µM) + IGF-I (50 nM), 15 min
Protocol: as §1

Akt = assay: Western blot for signaling kinases: Akt phosphorylation; format: cell-based, grass carp (Ctenopharyngodon idellus); conditions: grass carp pituitary cells, senktide (1 µM) + IGF-I (50 nM), 15 min
Protocol: as §1

grass carp TACR3 [3] = molecular target: T1, grass carp TACR3; assay: CRE-Luc luciferase reporter (cAMP pathway) in HEK-293 cells with stable expression of grass carp TACR3; format: cell-based, grass carp (Ctenopharyngodon idellus); conditions: SEM
Protocol: To clarify the ligand selectivity and signal transduction pathways of TACR3, functional expression of grass carp TACR3 was performed in HEK-293 cells with co-transfection of luciferase-expressing reporters targeting different signaling pathways provided by the Clontech Cell Signaling Profiling Kit (Clontech, Mountain View, CA, USA), including cAMP response element (CRE)-Luc (for cAMP pathway), activator protein-1 (AP1)-Luc (for PKC pathway), nuclear factor of activated T-cells (NFAT)-Luc (for Ca^2+/calcineurin pathway), and serum responsive element (SRE)-Luc (for MAPK pathway) [29]. […]
For the calcium bioluminescence signals and raw data obtained from luciferase reporter assays, the luminescence signals or luciferase activity was expressed as “relative luminescence unit (RLU)” registered by the fluorescence plate reader. For individual samples of the luciferase reporter assay, the firefly luciferase activity detected was routinely normalized against Renilla Luciferase activity expressed in the same well and expressed as the luciferase activity ration (as “Luc Ratio”). […] The six replicates presented (expressed as Mean ± SEM) were pooled results from two individual experiments prior to statistical analysis; all data were tested for normality of distribution using the Shapiro–Wilk normality test. […]

ERK1/2 = assay: Western blot for signaling kinases: ERK1/2 phosphorylation; format: cell-based, grass carp (Ctenopharyngodon idellus); conditions: grass carp pituitary cells, senktide (1 µM) + IGF-I (50 nM), 15 min
Protocol: as §1

## CSCC[C@H](NC(=O)[C@H](CC(C)C)NC(=O)CNC(=O)[C@H](Cc1ccccc1)N(C)C(=O)[C@H](Cc1ccccc1)NC(=O)[C@H](CC(=O)O)NC(=O)CCC(=O)O)C(N)=O [senktide] (HELM PEPTIDE1{[O=C(O)CCC(=O)[*:2]].D.F.[meF].G.L.M.[am]}$$$$V2.0; N-terminus and C-terminus assumed)
Grass carp TACR3 [1]
  IC50: 71.2 ± 9.23 nM
MEK1/2
  effect of cotreatment on IGF-I-induced protein phosphorylation of MEK1/2: did not alter
[2]
  SLα mRNA expression on cotreatment of TACR3 agonist with IGF-I or IGF-II: mimic the synergistic effects
p38MAPK
  effect of cotreatment on IGF-I-induced protein phosphorylation of p38MAPK: did not alter
Akt
  effect of cotreatment on IGF-I-induced protein phosphorylation of Akt: noticeable potentiating effect
Grass carp TACR3 [3]
  EC50: 21.3 ± 3.2 nM
ERK1/2
  effect of cotreatment on IGF-I-induced protein phosphorylation of ERK1/2: did not alter
